We go through 7 molecules from patent US20050234113A1, “Antioxidant and radical scavenging activity of synthetic analogs of desferrithiocin” (University of Florida Research Foundation, Inc., priority 2002, published 2005).

Each structure is given as a SMILES string. Marks after values point to notes of the source that are not given here.

A short description of experiment [1]: Quenching of the ABTS radical cation. As to the method: The iron chelators were tested for their ability to quench the radical cation formed from 2,2′-azinobis(3-ethylbenzothiazoline-6-sulfonic acid) (ABTS) by the method of Re et al. in Free Radic. Biol. Med. 26, 1231-1237 (1999). Briefly, a stock solution of ABTS radical cation was generated by mixing ABTS (10 mM, 2.10 mL) with K2S2O8 (8.17 mM, 0.90 mL) in H2O and […] deep blue-green ABTS radical cation was diluted in sufficient sodium phosphate (10 mM, pH 7.4) to give an A734 of about 0.900. Test compounds were added to a final concentration ranging from 1.25 to 15 μM, and the decrease in A734 was read after 1, 2, 4 and 6 min. The reaction was largely complete by 1 min, but the data presented are based on a 6-min reaction time.
In this assay, a fairly stable radical cation, ABTS^+, was examined, and Trolox, an analog of vitamin E, was used as a positive control. Briefly, the procedure involved generating the blue-green chromophore by the reaction of ABTS with K2S2O8. The radical has absorption maxima at λ=415, 645, 734, and 815 nm. The change in absorbance at 734 nm was noted 6 min after addition of the chelator of interest at various concentrations, and the slope of the ΔA734 vs. ligand concentration line was calculated.
The iron chelators were tested for their ability to quench the radical cation formed from 2,2′-azinobis(3-ethylbenzothiazoline-6-sulfonic acid) (ABTS) by a published method (Re, R., et al., Free Radical Biol. Med. 26:1231-1237 (1999). Briefly, a stock solution of ABTS radical cation was generated by mixing ABTS (10 mM, 2.10 mL) with K2S2O8 (8.17 mM, 0.90 mL) in H2O and allowing the solution to sit in the dark at room temperature for 18 hours. This stock solution of deep blue-green ABTS radical cation was diluted in sufficient sodium phosphate (10 mM, pH 7.4) to give an A734 of about 0.900. Test compounds were added to a final concentration ranging from 1.25 to 15 μM, and the decrease in A734 was read after 1, 2, 4 and 6 min. The reaction was largely complete by 1 min, but the data presented are based on a 6-min. reaction time.
This radical cation decolorization assay utilizes the pre-formed radical monocation of 2,2′-azinobis(3-ethylbenzothiazoline-6-sulfonic acid) (ABTS) and has been used to evaluate the antioxidant capacity of a large number of compounds and mixtures. Briefly, the change in absorbance of the blue-green chromophore was recorded after the addition of the chelator of interest at each of the different concentrations, and the slope of the ΔA734 vs. ligand concentration line was calculated. The positive control for this reaction was Trolox, an analogue of vitamin E. The decrease in A734 as a function of ligand concentration is the comparitor among the five compounds evaluated. Trolox, L1, DFO, (S)-4′-(HO)-DADMDFT and BDU (Table 3). All four of the iron chelators performed better than Trolox; DFO≈BDU>(S)-4′-(HO)-DADMDFT>L1>Trolox. Thus, all of these ligands could be expected to serve as excellent radical scavengers.

A short description of experiment [2]: Quenching of the ABTS radical cation. Conditions: Table 5; 6-min reaction, initial OD 1.000.
Experiment [3] can be described thus: Prevention of iron-mediated oxidation of ascorbate (ascorbate-mediated reduction of Fe(III)). Conditions: ascorbate 100 μM, FeCl3 30 μM, pH 7.4, ligand/Fe ratios 0-3, 40 min. As to the method: (§1) The iron chelators were tested for their ability to diminish the iron-mediated oxidation of ascorbate by the method of Dean and Nicholson (Free Radical Res. 20, 83-101 (1994)). Briefly, a solution of freshly prepared ascorbate (100 μM) in sodium phosphate buffer (5 mM, pH 7.4) was incubated in the presence of FeCl3 (30 μM) and chelator (ligand/Fe ratios varied from 0-3) for 40 min. The A265 was read at 10 and 40 min; the ΔA265 in the presence of ligand was compared to that in its absence.
The role of chelators in either inhibition or promotion of the Fenton reaction is related to their capacity to prevent Fe(III) from being reduced to Fe(II). Fe(II) is required for the reduction of H2O2 to HO. and HO^−. The assay involves spectrophotometrically monitoring the disappearance of ascorbate at pH 7.4 in the presence of FeCl3 and chelator at several ligand/Fe ratios. Under these conditions, ascorbate is oxidized to an L-ascorbyl radical anion. This anion then disproportionates to dehydroascorbic acid and ascorbate.
as §1, with “chelators nitrilotriacetic acid (NTA), 1,2-dimethyl-3-hydroxypyridin-4-one (L1), desferrioxamine B (DFO), (S)-4′-(HO)-DADMDFT, and (S,S)-1,11-Bis[5-(4-carboxyl-4,5-dihydro-1,3-thiazol-2-yl)-2,4-dihydroxyphenyl]-4,8-dioxaundecane (BDU)” for “chelators”, “Nicholson, Free” for “Nicholson (Free”, “20:” for “20,”, “(1994).” for “(1994)).”
The measurement examines the disappearance of ascorbate. It is known that DFO, a hydroxamate chelator that forms a 1:1 complex with Fe(III) at a formation constant of approximately 10^31 M^−1, prevents ascorbate-mediated reduction of Fe(III); it serves as a positive control in the present study. Both NTA and L1 promote ascorbate-mediated reduction of Fe(III) and serve as negative controls.

Experiment [4] has as its system Myeloperoxidase (MPO) activity in colonic tissue. As to the kind of experiment: Myeloperoxidase (MPO) assay in colonic tissue of rats with acetic acid-induced colitis. It is filed as in vivo. Conditions: 650 μmol kg^−1 intracolonically 30 min before 4% acetic acid, mean ± standard deviation. The protocol: (§2) The ligands were administered to the rats intracolonically as a suspension or solution in distilled water (2 mL) at a dose of 650 μmol kg^−1. The drug solutions were made fresh for each experiment. ROWASA®, the pharmaceutical preparation which contains 5-ASA (2 mL, 66.7 mg mL^−1) was given at a dose of 2318 μmol kg^−1. Control rats received distilled water (2 mL), administered intracolonically.
(§3) Animal care and experimental procedures were approved by the Institutional Animal Care and Use Committee. Colitis was induced by a modification of published methods. Briefly, the rats were anesthetized with sodium pentobarbital, 55 mg kg^−1 intraperitoneally. The abdomen was shaved and prepared for surgery. A midline incision was made, and the cecum and proximal colon were exteriorized. A reversible suture was placed at the junction of the cecum and proximal colon. The colon was rinsed with saline (10 mL), and the fluid and intestinal contents were gently expressed out the rectum. A gum-based rectal plug was inserted. The compound of interest, or distilled water in the control animals (2 mL), was injected intracolonically just distal to the ligature. The cecum and proximal colon were returned to the abdominal cavity; the compound was allowed to remain in the gut for 30 min. Then, the cecum and proximal colon were reexteriorized. The rectal plug was removed, and the drug was gently expressed out of the colon. Acetic acid (4%, 2 mL) was injected into the proximal colon over a 15-20-second time period. The acid was allowed to remain in the gut until one minute had passed (i.e., 40-45 seconds after the end of the acid administration). The no acid control rats received distilled water (2 mL), which was administered in the same manner as was the acetic acid. Air (10 mL) was then injected into the proximal colon to expel the acid or water. The cecal/proximal colon ligature was removed, the gut was returned to the abdominal cavity, and the incisions were closed. The animals were allowed to recover overnight and were sacrificed 24 hr later. The entire length of the colon was removed and assessed for damage both densitometrically and biochemically.
The activity of MPO was measured in colonic tissue by a modification of the method of Krawisz et al. in Gastroenterology 87, 1344-1350 (1984). Each excised colon was homogenized in 9 volumes of homogenization buffer (0.5% hexadecyltrimethylammonium bromide (HDTMA) in 50 mM sodium acetate, pH 6.0); this homogenate was centrifuged at 1200 g for 20 min at 4° C. A sample of the supernatant (1.8 mL) was transferred into a microcentrifuge tube and stored frozen at −20° C. for up to one week. Prior to assay, the thawed aliquot was centrifuged at about 10,000 g for 15 minutes at 4° C. The final supernatant (33 μL) was added to a solution of o-dianisidine HCl (0.17 mg mL^−1 in 50 mM sodium acetate, pH 6.0, made fresh daily and filtered immediately before use) (950 μL), the mixture was vortexed, and the peroxidase reaction was initiated by the addition of H2O2 to 50 mM sodium acetate, pH 6.0, made fresh daily (16.7 μL). The A470 at room temperature (ca. 23° C.) was read at 15-second intervals for 2 min. The rates were assessed graphically and are presented as change in milliabsorbance units (ΔmAU)/min per g tissue. Under these conditions, 0.1 “Unit” of purified human leukocyte myeloperoxidase (Sigma M-6908) produced a ΔA470 of about 400 mAU/min.
The biochemical measurement involves measuring the level of MPO in a sample of homogenate of the whole rat colon. When the colon is damaged by the acetic acid, there is an extravasation of neutrophils. The extent of this infiltration can serve as a quantitative marker for tissue damage. Although other leukocytes, such as eosinophils and monocytes, also contribute to the inflammatory response, their contribution is small; the majority of the cells recruited during the acute inflammatory response are neutrophils. […]

The test system of experiment [5] is acetic acid-induced colitis. As to the kind of experiment: Acetic acid-induced colitis in rats, densitometric image analysis of colonic damage. It is filed as in vivo. Conditions: for Damage (%): 650 μmol kg^−1 intracolonically 30 min before 4% acetic acid, mean ± standard deviation; for protection against acetic acid-induced colonic damage (in words): intracolonic, image analysis and MPO assay. The protocol:
as §2, §3
Gross damage was quantitated using Photoshop-based image analysis (version 5.0, Adobe Systems, Mountain View, Calif., USA) on an Apple iMac computer. The Magic Wand tool in the Select menu of Photoshop was used to place the cursor on an area of obvious damage. The tolerance level of the Magic Wand tool was set at 30. The damaged areas were automatically selected by using the Similar command in the Select menu. Then, the Eyedropper tool was used to determine the range of the damage in the highlighted areas. Individual colon images were copied to a blank Photoshop page. The Magic Wand tool, with a tolerance set to 100, was used to select all of the pixels in the colon sample. Then, the Histogram tool, which generates a graph in which each vertical line represents the number of pixels associated with a brightness level, was selected in the Image menu. The Red channel was then selected; the darker (damaged areas) appear on the left side of the histogram and the lighter (normal) areas are on the right side. The cursor was then placed on the histogram, the color range determined in an earlier step was selected, and the number of pixels encompassing that range and the percent damage were quantified automatically.
Two means were employed to assess the damage to the colon in the presence and absence of ligand, computer-based image analysis and colonic MPO measurement. The densitometric method removes much of the subjectivity involved in the simple scoring approaches. A digital image of the prepared colonic tissue is taken, and a clearly damaged segment is highlighted on the screen. Once the computer identifies all other segments of the intestine with the same or greater damage, a pixel number is generated; this number makes it possible to calculate the percentage of damaged intestine.

The mark [6] stands for this setting: Table 1, A734, six-minute reaction, pH 7.4, 1.25 to 15 μM.

`COc1ccc(C2=NC(C)(C(=O)O)CS2)c(O)c1` (centres unmarked) [4′-(CH3O)-DADFT, 4′-methoxydesazadesferrithiocin]: in experiment [1] (method of Example 6), the “radical trapping compared with Trolox (in words)” value is recorded as “as effective as Trolox”. Also, the “Slope × 10^3 OD units/μM (ABTS radical cation quenching)” value (from here on “Slope × 10^3 OD units/μM”) in experiment [2] is given as −36 × 10^3 OD units/μM. Further, the “effect on ascorbate-mediated reduction of Fe(III) (in words)” value in experiment [3] is listed as “slowed Fe(III) reduction considerably”.

Turning to `CN(O)C(=O)[C@@]1(C)CSC(c2ccc(O)cc2O)=N1` [4′-(HO)-DADFT-NMH], in experiment [1] (setting [6]), the “Slope × 10^3 OD units/μM” value is −141.4 × 10^3 OD units/μM. Besides, the MPO activity in experiment [4] is on record as 41021 ± 35525 mAU min^−1g of colonic tissue^−1. In addition, in experiment [5], the “Damage (%)” value is 46 ± 23% and the “protection against acetic acid-induced colonic damage (in words)” value is “moderately effective”.

As for `CN(O)C(=O)[C@H]1CSC(c2ccc(O)cc2O)=N1` [4′-(HO)-DADMDFT-NMH], the “Slope × 10^3 OD units/μM” value in experiment [1] (setting [6]) is reported as −135.5 × 10^3 OD units/μM. The MPO activity in experiment [4] is listed as 18426 ± 20930 mAU min^−1g of colonic tissue^−1. The “Damage (%)” value in experiment [5] was 39 ± 11%.

On to `O=C(O)C1CSC(c2ncccc2O)=N1` (centres unmarked) [DMDFT, desmethyldesferrithiocin], for which, in experiment [1] (setting [6]), the “Slope × 10^3 OD units/μM” value is listed as −1.3 × 10^3 OD units/μM. In addition, the MPO activity in experiment [4] was 39229 ± 27109 mAU min^−1g of colonic tissue^−1. Also, the “Damage (%)” value in experiment [5] amounted to 61 ± 15%.

On to `CN(O)C(=O)C1CSC(c2ncccc2O)=N1` (centres unmarked) [DMDFT-NMH, desmethyldesferrithiocin-N-methyl-hydroxamate], for which the “Slope × 10^3 OD units/μM” value in experiment [1] (setting [6]) was −47.4 × 10^3 OD units/μM. Also, in experiment [4], the MPO activity is recorded as 14406 ± 8683 mAU min^−1g of colonic tissue^−1. In experiment [5], the “Damage (%)” value is on record as 22 ± 17% and the “protection against acetic acid-induced colonic damage (in words)” value is listed as “most effective”.

With `Cc1ccc(O)c(C2=NC(C(=O)O)CC2)c1` (centres unmarked) [PCA, 3,4-dihydro-5-(2-hydroxy-5-methylphenyl)-2H-pyrrole-2-carboxylic acid], the “Slope × 10^3 OD units/μM” value in experiment [1] (setting [6]) is reported as −3.3 × 10^3 OD units/μM. Besides, the MPO activity in experiment [4] was 29942 ± 11255 mAU min^−1g of colonic tissue^−1. Also, the “Damage (%)” value in experiment [5] is reported as 44 ± 11%.

Turning to `Cc1c(C)c2c(c(C)c1O)CCC(C)(C(=O)O)O2` (centres unmarked) [Trolox, reference compound], the “Slope × 10^3 OD units/μM” value was −36.6 × 10^3 OD units/μM in experiment [1] (setting [6]); −37^b × 10^3 OD units/μM in experiment [1] (Table 3, A734, 6-min reaction, values marked b are the inventors' unpublished results); −37 × 10^3 OD units/μM in experiment [2].
